Measurements reported in patent publication US8637550B2, “Heteroaryl diamide compounds useful as MMP-13 inhibitors” (Boehringer Ingelheim International GmbH, priority 2008, dated 2014).

Each compound was assayed against MMP-13 (Homo sapiens, UniProt P45452) (assay: EnzoLyte 520 Generic MMP Assay Kit, 5-FAM/QXL520 FRET peptide substrate).
Type: biochemical
Excerpt: The EnzoLyte™ 520 Generic MMP Assay Kit (AnaSpec Inc.) can detect the activity of several MMPs including MMP-1, 2, 3, 7, 8, 9, 13, and 14. This kit uses a 5-FAM/QXL™520 fluorescence resonance energy transfer (FRET) peptide as an MMP substrate.
With `CNC(=O)[C@@H](NC(=O)c1ccc(-c2cccc(CNC(=O)c3cccc(C(F)(F)F)n3)c2)o1)C1CCOCC1` [N-[3-(5-{[(1S)-2-(methylamino)-2-oxo-1-(tetrahydro-2H-pyran-4-yl)ethyl]carbamoyl}-2-furyl)benzyl]-6-(trifluoromethyl)pyridine-2-carboxamide] the IC50 was 0.002 µM.
With `CNC(=O)[C@@H](NC(=O)c1ccc(-c2cccc(CNC(=O)c3cccc(OC)c3)c2)o1)C(C)C` [5-{3-[(3-Methoxy-benzoylamino)-methyl]-phenyl}-furan-2-carboxylic acid ((S)-2-methyl-1-methylcarbamoyl-propyl)-amide] the IC50 was 0.163 µM.
Compound `CNC(=O)[C@@H](NC(=O)c1ccc(-c2ccc(NC(=O)c3cn4c(C)cccc4n3)cc2)o1)C1CCCCC1` [N-[4-(5-{[(1S)-1-cyclohexyl-2-(methylamino)-2-oxoethyl]carbamoyl}furan-2-yl)phenyl]-5-methylimidazo[1,2-a]pyridine-2-carboxamide] has an IC50 of 0.15 µM.
`CNC(=O)[C@@H](NC(=O)c1ccc(-c2ccc(C#N)cn2)o1)C1CCCCC1` [5-(5-Cyanopyridin-2-yl)-N-[(1S)-1-cyclohexyl-2-(methylamino)-2-oxoethyl]furan-2-carboxamide] showed an IC50 of 0.069 µM.
Compound `CNC(=O)[C@@H](NC(=O)c1ccc(-c2ccc(NC(=O)c3cn4ccccc4n3)cc2)o1)C1CCCCC1` [N-[4-(5-{[(1S)-1-cyclohexyl-2-(methylamino)-2-oxoethyl]carbamoyl}furan-2-yl)phenyl]imidazo[1,2-a]pyridine-2-carboxamide] has an IC50 of 0.109 µM.
Compound `CNC(=O)[C@@H](NC(=O)c1ccc(-c2cccc(CNC(=O)c3ccoc3C)c2)o1)C1CCCCC1` [N-[(1S)-1-cyclohexyl-2-(methylamino)-2-oxoethyl]-5-[3-({[(2-methylfuran-3-yl)carbonyl]amino}methyl)phenyl]furan-2-carboxamide] has an IC50 of 0.33 µM.
`CNC(=O)[C@@H](NC(=O)c1ccc(-c2ccc(Cl)cn2)o1)C1CCCCC1` [5-(5-Chloropyridin-2-yl)-N-[(1S)-1-cyclohexyl-2-(methylamino)-2-oxoethyl]furan-2-carboxamide] gave an IC50 of 0.245 µM.
Work on `CNC(=O)[C@@H](NC(=O)c1ccc(-c2ccc(OCc3cncn3C)cn2)o1)C1CCCCC1` [N-[(1S)-1-cyclohexyl-2-(methylamino)-2-oxoethyl]-5-{5-[(1-methyl-1H-imidazol-5-yl)methoxy]pyridin-2-yl}furan-2-carboxamide] yielded an IC50 of 0.018 µM.
Work on `CNC(=O)[C@@H](NC(=O)c1ccc(-c2ccc(NC(=O)c3cc(C)c(C)o3)cc2)o1)C1CCCCC1` [N-[4-(5-{[(1S)-1-cyclohexyl-2-(methylamino)-2-oxoethyl]carbamoyl}furan-2-yl)phenyl]-4,5-dimethylfuran-2-carboxamide] yielded an IC50 of 0.063 µM.
`N#Cc1ccc(-c2ccc(C(=O)N[C@H](C(=O)NCCO)C3CCCCC3)o2)cc1` [5-(4-cyanophenyl)-N-{(1S)-1-cyclohexyl-2-[(2-hydroxyethyl)amino]-2-oxoethyl}furan-2-carboxamide] gave an IC50 of 0.1 µM.
In the case of `CNC(=O)[C@@H](NC(=O)c1ccc(-c2cccc(CNC(=O)c3occc3C)c2)o1)C1CCCCC1` [N-[3-(5-{[(1S)-1-cyclohexyl-2-(methylamino)-2-oxoethyl]carbamoyl}furan-2-yl)benzyl]-3-methylfuran-2-carboxamide], the IC50 is reported as 0.18 µM.
Work on `CNC(=O)[C@@H](NC(=O)c1ccc(-c2ccc(NC(=O)c3cccc(C)n3)cc2)o1)C1CC1` [N-[4-(5-{[(1S)-1-cyclopropyl-2-(methylamino)-2-oxoethyl]carbamoyl}furan-2-yl)phenyl]-6-methylpyridine-2-carboxamide] yielded an IC50 of 0.069 µM.
For `CNC(=O)[C@@H](NC(=O)c1ccc(-c2cccc(CNC(=O)c3ccc(C)c(C)c3)c2)o1)C(C)C` [5-{3-[(3,4-Dimethyl-benzoylamino)-methyl]-phenyl}-furan-2-carboxylic acid ((S)-2-methyl-1-methylcarbamoyl-propyl)-amide], the IC50 was 0.156 µM.
In the case of `CNC(=O)[C@@H](NC(=O)c1ccc(-c2cccc(CNC(=O)c3ccc(N(C)C)cc3)c2)o1)C(C)C` [5-{3-[(4-Dimethylamino-benzoylamino)-methyl]-phenyl}-furan-2-carboxylic acid ((S)-2-methyl-1-methylcarbamoyl-propyl)-amide], the IC50 is reported as 0.11 µM.
With `CNC(=O)[C@@H](NC(=O)c1ccc(-c2cccc(CNC(=O)c3cccc(Br)n3)c2)o1)C1CC1` [6-Bromo-N-[3-(5-{[(1S)-1-cyclopropyl-2-(methylamino)-2-oxoethyl]carbamoyl}-2-furyl)benzyl]pyridine-2-carboxamide] the IC50 was 0.027 µM.
`CNC(=O)[C@@H](NC(=O)c1ccc(-c2cccc(CNC(=O)c3cc(C)n(C)n3)c2)o1)C1CCCCC1` [N-[3-(5-{[(1S)-1-cyclohexyl-2-(methylamino)-2-oxoethyl]carbamoyl}furan-2-yl)benzyl]-1,5-dimethyl-1H-pyrazole-3-carboxamide] was tested, and the IC50 was 0.072 µM.
`CNC(=O)[C@@H](NC(=O)c1ccc(-c2cccc(CNC(=O)C(C)C)c2)o1)C1CCCCC1` [N-[(1S)-1-cyclohexyl-2-(methylamino)-2-oxoethyl]-5-(3-{[(2-methylpropanoyl)amino]methyl}phenyl)furan-2-carboxamide] was tested, and the IC50 was 0.157 µM.
For `CNC(=O)[C@@H](NC(=O)c1ccc(-c2ccc(-c3ccc(F)cc3)cn2)o1)C(C)C` [5-[5-(4-Fluoro-phenyl)-pyridin-2-yl]-furan-2-carboxylic acid ((S)-2-methyl-1-methylcarbamoyl-propyl)-amide], the IC50 was 0.078 µM.
`CNC(=O)[C@@H](NC(=O)c1ccc(-c2cccc(CNC(=O)c3cccnc3)c2)o1)C(C)C` [N-[3-(5-{[(1S)-2-methyl-1-(methylcarbamoyl)propyl]carbamoyl}-2-furyl)benzyl]nicotinamide] gave an IC50 of 0.355 µM.
`CNC(=O)[C@@H](NC(=O)c1ccc(-c2ccc(-c3cc(F)cc(F)c3)cn2)o1)C(C)C` [5-[5-(3,5-Difluoro-phenyl)-pyridin-2-yl]-furan-2-carboxylic acid ((S)-2-methyl-1-methylcarbamoyl-propyl)-amide] showed an IC50 of 0.37 µM.
For `CNC(=O)[C@@H](NC(=O)c1ccc(-c2ccc(OCc3ccncc3)cn2)o1)C1CCCCC1` [N-[(1S)-1-cyclohexyl-2-(methylamino)-2-oxoethyl]-5-[5-(pyridin-4-ylmethoxy)pyridin-2-yl]furan-2-carboxamide], the IC50 was 0.001 µM.
`CNC(=O)[C@@H](NC(=O)c1ccc(-c2cccc(CNC(=O)NC(C)(C)C)c2)o1)C1CCCCC1` [5-(3-{[(tert-Butylcarbamoyl)amino]methyl}phenyl)-N-[(1S)-1-cyclohexyl-2-(methylamino)-2-oxoethyl]furan-2-carboxamide] gave an IC50 of 0.105 µM.
In the case of `CNC(=O)[C@@H](NC(=O)c1ccc(-c2cccc(CNC(=O)c3ccnc(Cl)n3)c2)o1)C(C)C` [2-Chloro-N-[3-(5-{[(1S)-2-methyl-1-(methylcarbamoyl)propyl]carbamoyl}-2-furyl)benzyl]pyrimidine-4-carboxamide], the IC50 is reported as 0.009 µM.
`CNC(=O)[C@@H](NC(=O)c1ccc(-c2cccc(CNC(=O)C3CCCCN3)c2)o1)C(C)C` (stereo partly drawn) [N-[3-(5-{[(1S)-2-methyl-1-(methylcarbamoyl)propyl]carbamoyl}-2-furyl)benzyl]piperidine-2-carboxamide] showed an IC50 of 0.27 µM.
